The source of these data is patent US9944624B2, “Substituted amino triazoles useful as human chitinase inhibitors” (OncoArendi Therapeutics S.A., priority 2015, dated 2018).

In one assay the target is recombinant human AMCase (Homo sapiens (Human), UniProt Q9BZP6). Briefly: Human AMCase activity assay (fluorescent 4MU substrate). Type of assay: biochemical. The settings on record: citrate buffer pH 5.2, 37° C., 60 minutes; substrate 4-methylumbelliferyl B-D-N,N′-diacetylchitobioside hydrate; read-out: Activity on hAMCase, IC50.
The target of the next assay is recombinant human CHIT1 (Homo sapiens (Human), UniProt Q13231). The experiment in a line: Human CHIT1 activity assay (fluorescent 4MU substrate). To be noted: citrate buffer pH 5.2, 37° C., 60 minutes; substrate 4-methylumbelliferyl β-D-N,N′,N″-triacetylchitotriose; read-out: Activity on hCHIT1, IC50. Type of assay: biochemical.

Some results are limits rather than exact numbers.

recombinant human AMCase, sequence (Q9BZP6 22-476): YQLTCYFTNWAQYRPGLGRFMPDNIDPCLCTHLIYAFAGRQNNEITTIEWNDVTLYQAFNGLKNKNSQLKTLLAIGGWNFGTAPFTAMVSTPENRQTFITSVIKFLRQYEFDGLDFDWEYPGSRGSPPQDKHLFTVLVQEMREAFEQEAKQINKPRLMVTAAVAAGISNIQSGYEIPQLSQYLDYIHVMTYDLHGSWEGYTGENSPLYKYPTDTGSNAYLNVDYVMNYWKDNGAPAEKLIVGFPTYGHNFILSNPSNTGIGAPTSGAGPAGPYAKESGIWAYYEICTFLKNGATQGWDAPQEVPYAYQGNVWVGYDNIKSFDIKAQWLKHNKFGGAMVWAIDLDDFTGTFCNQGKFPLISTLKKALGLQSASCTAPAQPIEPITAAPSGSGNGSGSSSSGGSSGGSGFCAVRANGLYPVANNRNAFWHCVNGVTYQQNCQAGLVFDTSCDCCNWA
recombinant human CHIT1, sequence (Q13231 22-466): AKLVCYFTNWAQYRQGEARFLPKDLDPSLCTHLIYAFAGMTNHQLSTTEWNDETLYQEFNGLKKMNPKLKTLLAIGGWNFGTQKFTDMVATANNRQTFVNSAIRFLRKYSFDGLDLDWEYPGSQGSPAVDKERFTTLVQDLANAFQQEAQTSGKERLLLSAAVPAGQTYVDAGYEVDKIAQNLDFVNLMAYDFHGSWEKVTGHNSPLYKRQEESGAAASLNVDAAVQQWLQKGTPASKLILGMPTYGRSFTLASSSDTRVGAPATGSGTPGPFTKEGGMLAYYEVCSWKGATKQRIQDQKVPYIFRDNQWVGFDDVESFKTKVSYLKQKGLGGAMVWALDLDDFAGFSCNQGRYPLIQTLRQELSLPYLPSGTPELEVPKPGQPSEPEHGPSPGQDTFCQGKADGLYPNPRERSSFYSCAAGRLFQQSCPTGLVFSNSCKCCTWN

Usually IC50 stands for the concentration that inhibits the measured activity by half. For `C=C1COC[C@H](Cc2ccc(Cl)cc2)N(C2CCN(c3nnc(N)[nH]3)CC2)C1` [Example 55, (S)-5-(4-(3-(4-chlorobenzyl)-6-methylene-1,4-oxazepan-4-yl)piperidin-1-yl)-4H-1,2,4-triazol-3-amine], the figures for the IC50 at recombinant human AMCase and on recombinant human CHIT1 were under 100 nM and 100 to 1000 nM, respectively.

On to `CN1C[C@H](Cc2ccc(Cl)cc2)N(C2CCN(c3nnc(N)[nH]3)CC2)Cc2ccccc21` [Example 57, (S)-5-(4-(3-(4-chlorobenzyl)-1-methyl-2,3-dihydro-1H-benzo[e][1,4]diazepin-4(5H)-yl)piperidin-1-yl)-4H-1,2,4-triazol-3-amine], for which the IC50 is under 100 nM at recombinant human AMCase and 100 to 1000 nM at recombinant human CHIT1.

Take `CN1C[C@H](Cc2ccc(Cl)cc2)N(C2CCN(c3nnc(N)[nH]3)CC2)Cc2cc(Cl)ccc21` [Example 58, (S)-5-(4-(7-chloro-3-(4-chlorobenzyl)-1-methyl-2,3-dihydro-1H-benzo[e][1,4]diazepin-4(5H)-yl)piperidin-1-yl)-4H-1,2,4-triazol-3-amine]: the IC50 at recombinant human AMCase is under 100 nM; on recombinant human CHIT1 it was 100 to 1000 nM.

Turning to `Nc1nnc(N2CCC(N3Cc4ccccc4OC[C@@H]3Cc3ccc(Cl)cc3)CC2)[nH]1` [Example 59, (S)-5-(4-(3-(4-chlorobenzyl)-2,3-dihydrobenzo[f][1,4]oxazepin-4(5H)-yl)piperidin-1-yl)-4H-1,2,4-triazol-3-amine], the IC50 at recombinant human AMCase was under 100 nM; at recombinant human CHIT1 it was 100 to 1000 nM.

As for `Nc1nnc(N2CCC(N3Cc4cc(F)ccc4OC[C@@H]3Cc3ccc(Cl)cc3)CC2)[nH]1` [Example 60, (S)-5-(4-(3-(4-chlorobenzyl)-7-fluoro-2,3-dihydrobenzo[f][1,4]oxazepin-4(5H)-yl)piperidin-1-yl)-4H-1,2,4-triazol-3-amine], the IC50 on recombinant human AMCase was under 100 nM; at recombinant human CHIT1, 100 to 1000 nM.

Regarding `Nc1nnc(N2CCC(N3Cc4cc(Cl)ccc4OC[C@@H]3Cc3ccc(Cl)cc3)CC2)[nH]1` [Example 61, (S)-5-(4-(7-chloro-3-(4-chlorobenzyl)-2,3-dihydrobenzo[f][1,4]oxazepin-4(5H)-yl)piperidin-1-yl)-4H-1,2,4-triazol-3-amine], the IC50 on recombinant human AMCase is under 100 nM; on recombinant human CHIT1 it was 1000 to 10000 nM.

In the case of `Nc1nnc(N2CCC(N3Cc4cc(Cl)cc(Cl)c4OC[C@@H]3Cc3ccc(Cl)cc3)CC2)[nH]1` [Example 62, (S)-5-(4-(7,9-dichloro-3-(4-chlorobenzyl)-2,3-dihydrobenzo[f][1,4]oxazepin-4(5H)-yl)piperidin-1-yl)-4H-1,2,4-triazol-3-amine], the IC50 on recombinant human AMCase is under 100 nM; at recombinant human CHIT1 it was 10000 to 100000 nM.

Turning to `Nc1nnc(N2CCC(N3Cc4ccncc4OC[C@@H]3Cc3ccc(Cl)cc3)CC2)[nH]1` [Example 63, (S)-5-(4-(3-(4-chlorobenzyl)-2,3-dihydropyrido[4,3-f][1,4]oxazepin-4(5H)-yl)piperidin-1-yl)-4H-1,2,4-triazol-3-amine], the IC50 on recombinant human AMCase was under 100 nM; at recombinant human CHIT1, 1000 to 10000 nM.
